According to patent US12527766B2, “Methods of treating acute coronary syndrome using 3,3′-diindolylmethane” (Boulder BioScience LLC, priority 2020, dated 2026):
Where a name gives a salt, the structure may show the parent alone.

Legend:
[1] = tested on: carotid artery thromboses; assay: FeCl3 carotid artery thrombosis in mice, H&E fibrin content; assay type: in vivo, mice (C57BL6/J); conditions: DIM treated animals (oral and IV groups)
Method: Animals: All mice were of C57BL6/J background. Specific pathogen-free mice were obtained from Envigo, USA. All mice used for experiments were between 11 and 14 weeks old. Each experimental group was weight and sex-matched so that experiments were carried out on male and female mice with similar weight and in equal sex distribution between groups. All procedures were performed on anaesthetized animals using a uniform technique of inhaled Isoflurane combined with supplemental parenteral agents. Animals were sacrificed under deep anesthesia. All animal experiments were carried out according to the guidelines from the Guide for Care and Use of Laboratory Animals and The Public Health Service (PHS) Policy on Humane Care and Use of Laboratory Animals. All experimental procedures performed on animals met the requirements of the Guide for the protection of animals used for scientific purposes. Induction of arterial thrombosis after Ferric Chloride exposure: For thrombus induction in the distal carotid artery in vivo, local application of FeCl3 was used following an established method (Wang et al, 2005, supra). In brief, mice were anesthetized using 2-3% inhaled isoflurane, shifting to lower dose maintenance isoflurane and supplemented with a fixed combination of intra-peritoneal buprenorphine, midazolam and dexmedetomidine. […]

human neutrophils [2] = assay: Sytox Orange extracellular DNA release (NET) assay; assay type: cell-based
Excerpt: (§1) Neutrophil isolation: Neutrophils were isolated from the peripheral blood of healthy donors, under a protocol approved by an institutional ethics committee. All subjects gave written informed consent in accordance with the Declaration of Helsinki. Briefly, whole blood was collected using an anticoagulant (sodium citrate), and isolated as previously described using a Percoll gradient separation of neutrophils from other leukocytes (Modulation of multiple neutrophil functions by preparative methods or trace concentrations of bacterial lipopolysaccharide. Haslett C, et al. Am J Pathol. 1985 April; 119(1): 101-10). Neutrophils were suspended in RPMI, 2% heat-inactivated human plasma, and 10 mM HEPES, pH7.5 (complete RPMI) to a neutrophil specific concentration of 2.2×10^6 neutrophils/ml.
First Neutrophil Extracellular Trap (NET) indicating assay: A Sytox Orange extracellular DNA release assay was utilized. For the experiments using DIM from self-emulsifying SMEDDS BR-9001 (i.e., Example 1), purified human neutrophils (2×10^5 per sample) in complete RPMI were allowed to settle in 24-well plates in the presence of DIM from self-emulsifying DIM formulation SMEDDS—BR-9001 (12% DIM) providing experimental DIM concentrations of 1, 3, 10, and 30 μM. Control wells received SMEDDS excipient vehicle mixture alone (diluted to provide excipient mixture concentrations equivalent to excipients present in the 3 and 30 μM DIM experimental wells). Neutrophils (2×10^5 per well) were plated in a black-walled 96-well plate and allowed to settle in the presence of DIM from BR-9001 or excipient vehicle control for 30 min. After 30 minutes neutrophils in wells were stimulated with recombinant fusion protein (F Protein (1 μg/ml, Sino Biologicals) or phenolextracted lipopolysaccharide (LPS; 10 μg/ml; List Biologicals). and 5 μM Sytox Orange (Thermo Fisher) was added and gently mixed. The plate was placed in a prewarmed (37° C.) fluorescence plate reader (BioTek FLX-800) and fluorescence read at excitation/emission of 540/600 every 10 minutes over 4 hours. Following this, 1% saponin was added to lyse neutrophils to provide 100% DNA release for experiments presented in FIGS. 1A and 1B. This allowed results to be presented as proportion of total DNA in these experiments. Otherwise results are reported as relative fluorescent units (FIGS. 3A and 3B). The kinetics or 4-hour results were reported as described (Sec FIGS. 1A and 1B and FIG. 3A).
A second set of experiments were performed using crystalline DIM solubilized in DMSO prior to addition to culture wells. […] The plate was placed in a prewarmed (37° C.) fluorescence plate reader and fluorescence read as above every 10 minutes over 4 hours. […]

human neutrophils [3] = assay: Fluorescent imaging of extracellular DNA (Sytox Orange microscopy); assay type: cell-based
Excerpt: as §1
Fluorescent imaging of extracellular DNA for photo-micrograph data: Neutrophils (5×10^5 per well) were spotted on a glass microscope chamber slide (Ibidi) and cells were stimulated for 4 hours as indicated above with F Protein or LPS, at 37° C. in a humidified chamber, and stained with 0.2 μM Sytox Orange for the final 10 minutes. The slides were fixed in 2% formaldehyde (Sigma) for 10 min at room temperature and imaged.

[4] = following oral administration; cited from earlier work
[5] = cited from earlier work; for Log P: table of second active agents; for Log P of Second Active Agent: co-formulation table
[6] = in vivo and in vitro; cited from earlier work

Compound: c1ccc2c(Cc3c[nH]c4ccccc34)c[nH]c2c1 [DIM, 3,3′-diindolylmethane]
- thrombus composition (H&E) versus Vehicle Control [1]: less compact thrombi, primarily composed of red cells (RBCs), with a minimum of fibrin and lower presence of leukocytes
- delay in DNA release versus absence of DIM (human neutrophils [2]; F protein and LPS stimulated neutrophils): about 1 hours
- IC50 (human neutrophils [2]; Homo sapiens, Neutrophil, free DIM (crystalline, in DMSO), read-out: estimated IC50, inhibition of DNA release): 3 to 30 µM
- effect on DNA release (Sytox Orange) (human neutrophils [2]; free DIM in DMSO 1, 3, 10, 30 μM, F Protein 1 μg/ml): dose-dependent inhibitory effect
- spontaneous DNA release (human neutrophils [2]; non-stimulated neutrophils): did not inhibit
- extracellular DNA positive cells (microscopy) (human neutrophils [3]; 3 μM to 30 μM DIM): dose response
- visualization of extracellular DNA (microscopy) (human neutrophils [3]; API (free) DIM, F Protein and LPS, 4 h): inhibited visualization of extracellular DNA
- tissue distribution [4]: concentrates in brain tissue

Compound: COC(=O)/C=C/C(=O)OC [Dimethyl Fumarate, Dimethyl fumarate]
- Log P [5]: Log P - 0.62

Compound: O=c1c2ccccc2[se]n1-c1ccccc1 [Ebselen]
- Log P [5]: Log P - 2.65

Compound: CCCCCCCCc1ccc(CCC(N)(CO)CO)cc1 [Fingolimod]
- Log P of Second Active Agent [5]: 5.25
- Log P [5]: Log P - 5.25

Compound: CCCSc1nc(N[C@@H]2C[C@H]2c2ccc(F)c(F)c2)c2nnn([C@@H]3C[C@H](OCCO)[C@@H](O)[C@H]3O)c2n1 [Ticagrelor]
- Log P of Second Active Agent [5]: 1.90
- Log P [5]: Log P - 1.90

Compound: OCc1c[nH]c2ccccc12 [indole-3-carbinol, 1H-indol-3-ylmethanol]
- conversion products [6]: converts to DIM and LTR

Compound: Anakinra: recombinant and slightly modified version of the human interleukin 1 receptor antagonist protein
- Log P [5]: Log P - 2.69
